This is an account of results in patent publication US20210292340A1, “CELL NECROSIS INHIBITOR, PREPARATION METHOD THEREFOR AND USE THEREOF” (SHANGHAI INSTITUTE OF ORGANIC CHEMISTRY, CHINESE ACADEMY OF …, priority 2018, published 2021).

In the test the test system is Jurkat (FADD−/−) cells. Description: Inhibition of TNF-induced programmed Jurkat (FADD−/−) cell necrosis (Cell Titer-Glo). The format is cell-based, human. The following applies: Homo sapiens, Jurkat, 20 h, TNF 10 ng/mL, intracellular ATP level, read-out: Cellular IC50 (M) Jurkat (FADD−/−). On the procedure: Two replicate wells were set for each concentration of each compound.
Jurkat (FADD^−/−) cells (human-derived peripheral blood leukemia T cell line, with FADD gene knocked out) were cultured in vitro. After growing to logarithmic growth phase, the cells were harvested, and centrifuged at 1000 rpm for 5 min. The supernatant was discarded, and the cells were resuspended in fresh medium and adjusted to a cell density of 5×10^5/mL. The cell suspension was added to the culture plate containing the drug (40 μL per well). In the treatment groups, 10 μL of TNF (tumor necrosis factor, final concentration 10 ng/mL) diluted with the cell culture medium was added to each well, and incubated for 20 h in a cell incubator (37° C., 5% CO2). Subsequently, 50 μL of Cell Titer-Glo solution was added to each well and incubated at room temperature for 10 min. Then, the luminescence was detected on BioTek plate reader to measure the intracellular ATP level. The effect of the test compounds in inhibiting TNF-induced cell necrosis was calculated from the full-activity well and background well (with the untreated DMSO control well as 100% cell viability), and the half inhibitory concentration (IC50) of the compound was calculated by Graphpad Prism statistical software.
On to `CN1C(=O)[C@@H](NC(=O)c2cc(Cc3ccccc3)on2)CSc2cc3occc3cc21` [RIP1-038], for which the IC50 amounted to 1.29e-10 M.
On to `CN1C(=O)[C@@H](NC(=O)c2nnc(Cc3ccccc3)[nH]2)CSc2cc3occc3cc21` [RIP1-039], for which the IC50 is 4.5e-10 M.
On to `CN1C(=O)[C@@H](NC(=O)c2cn(Cc3ccccc3)nn2)CSc2cc3occc3cc21` [RIP1-040], for which the IC50 worked out at 3.6e-10 M.
For `CN1C(=O)[C@@H](NC(=O)c2nnc(Cc3ccccc3)o2)CSc2cc3[nH]ccc3cc21` [RIP1-041], the IC50 amounted to 3.79e-10 M.
Take `CN1C(=O)[C@@H](NC(=O)c2cn(Cc3ccccc3)nn2)CSc2cc3[nH]ccc3cc21` [RIP1-042]: the IC50 amounted to 1.93e-09 M.
With `CN1C(=O)[C@@H](NC(=O)c2nnn(Cc3ccccc3)n2)CSc2cc3[nH]ccc3cc21` [RIP1-043] the figure was 1.31e-10 M; with `Cc1ccc(Cc2cc(C(=O)N[C@H]3CSc4cc5[nH]ccc5cc4N(C)C3=O)n(C)n2)cc1` [RIP1-044], 1.91e-08 M.
Regarding `Cc1ccc(Cc2cc(C(=O)N[C@H]3CSc4cc5[nH]ccc5cc4N(C)C3=O)nn2C)cc1` [RIP1-045], the IC50 is more than 2e-06 M.
For the compound `CN1C(=O)[C@@H](NC(=O)c2cnc(Cc3ccccc3)[nH]2)CSc2cc3[nH]ccc3cc21` [RIP1-047], the IC50 was determined as 2.15e-08 M.
For the compound `CN1C(=O)[C@@H](NC(=O)c2cn(Cc3ccccc3)nn2)CSc2cc3c(ccn3C)cc21` [RIP1-048], the IC50 turned out to be 5.1e-09 M.
With `CN1C(=O)[C@@H](NC(=O)c2cnc(Cc3ccccc3)[nH]2)CSc2cc3c(ccn3C)cc21` [RIP1-050], the IC50 was 4.92e-07 M.
Consider `CN1C(=O)[C@@H](NC(=O)c2cnnn2Cc2ccccc2)CSc2cc3[nH]ccc3cc21` [RIP1-051], for which the IC50 is more than 2e-06 M.
Next, `CN1C(=O)[C@@H](NC(=O)c2cnnn2Cc2ccccc2)CSc2cc3c(ccn3C)cc21` [RIP1-052]: more than 2e-06 M; `CN1C(=O)[C@@H](NC(=O)c2cncn2Cc2ccccc2)CSc2cc3c(ccn3C)cc21` [RIP1-054]: more than 2e-06 M.
For the compound `CN1C(=O)[C@@H](NC(=O)c2cn(Cc3ccccc3)cn2)CSc2cc3c(ccn3C)cc21` [RIP1-055], the IC50 was 2.29e-09 M.
With `Cc1ccc(Cc2cc(C(=O)N[C@H]3CSc4cc5c(ccn5C)cc4N(C)C3=O)nn2C)cc1` [RIP1-056], the IC50 worked out at 4.15e-08 M.
Next, `Cc1ccc(Cc2cc(C(=O)N[C@H]3CSc4cc5c(ccn5C)cc4N(C)C3=O)n(C)n2)cc1` [RIP1-057]: more than 2e-06 M; `CN1C(=O)[C@@H](NC(=O)c2nnn(Cc3ccccc3)n2)CSc2cc3c(ccn3C)cc21` [RIP1-058]: 2.53e-10 M.
With `Cc1nc2cc3c(cc2[nH]1)OC[C@H](NC(=O)c1cnn(Cc2ccccc2)c1)C(=O)N3C` [RIP1-062] the figure was more than 2e-06 M.
`Cc1nc2cc3c(cc2[nH]1)OC[C@H](NC(=O)c1cn(Cc2ccccc2)nn1)C(=O)N3C` [RIP1-063]: the IC50 stood at 4.57e-08 M.
Turning to `Cc1nc2cc3c(cc2[nH]1)OC[C@H](NC(=O)c1cnnn1Cc1ccccc1)C(=O)N3C` [RIP1-064], the IC50 is more than 2e-06 M.
Next, `Cc1nc2cc3c(cc2[nH]1)OC[C@H](NC(=O)c1coc(Cc2ccccc2)n1)C(=O)N3C` [RIP1-065]: more than 2e-06 M; `Cc1nc2cc3c(cc2[nH]1)OC[C@H](NC(=O)c1cccc(Cc2ccccc2)c1)C(=O)N3C` [RIP1-066]: 6.7e-07 M; `Cc1nc2cc3c(cc2[nH]1)OC[C@H](NC(=O)c1nnc(Cc2ccccc2)o1)C(=O)N3C` [RIP1-070]: 2.15e-06 M.
For the compound `Cc1nc2cc3c(cc2[nH]1)OC[C@H](NC(=O)c1nnn(Cc2ccccc2)n1)C(=O)N3C` [RIP1-071], the IC50 was found to be 1.71e-08 M.
With `Cc1ccc(Cc2cc(C(=O)N[C@H]3COc4cc5[nH]c(C)nc5cc4N(C)C3=O)nn2C)cc1` [RIP1-072] the figure was 9.65e-08 M.
On to `Cc1ccc(Cc2cc(C(=O)N[C@H]3COc4cc5[nH]c(C)nc5cc4N(C)C3=O)n(C)n2)cc1` [RIP1-073], for which the IC50 is more than 2e-06 M.
Next, `CN1C(=O)[C@@H](NC(=O)c2cnn(Cc3ccccc3)c2)COc2cc3[nH]c(=O)[nH]c3cc21` [RIP1-074]: more than 2e-06 M.
With `CN1C(=O)[C@@H](NC(=O)c2nnn(Cc3ccccc3)n2)COc2cc3[nH]c(=O)[nH]c3cc21` [RIP1-075] the figure was 4.73e-10 M.
Take `CN1C(=O)[C@@H](NC(=O)c2nc(Cc3ccccc3)n[nH]2)COc2cc3[nH]c(=O)[nH]c3cc21` [RIP1-076]: the IC50 was more than 2e-06 M.
Consider `CN1C(=O)[C@@H](NC(=O)c2cc(Cc3ccccc3)on2)COc2cc3[nH]c(C(F)(F)F)nc3cc21` [RIP1-077], for which the IC50 was found to be 1.68e-08 M.
In the case of `CN1C(=O)[C@@H](NC(=O)c2cn(Cc3ccccc3)nn2)COc2cc3[nH]c(C(F)(F)F)nc3cc21` [RIP1-078], the IC50 stood at 3.11e-08 M.
With `CN1C(=O)[C@@H](NC(=O)c2cnc(Cc3ccccc3)o2)COc2cc3[nH]c(C(F)(F)F)nc3cc21` [RIP1-079] the figure was more than 2e-06 M.
Regarding `CN1C(=O)[C@H](NC(=O)c2cc(Cc3ccccc3)on2)COc2cc3c(ccn3C)cc21` [RIP1-080], the IC50 was more than 2e-06 M.
With `CN1C(=O)[C@H](NC(=O)c2nnc(Cc3ccccc3)o2)COc2cc3c(ccn3C)cc21` [RIP1-081], the IC50 was more than 2e-06 M.
With `CN1C(=O)[C@H](NC(=O)c2cnn(Cc3ccccc3)c2)COc2cc3c(ccn3C)cc21` [RIP1-082] the figure was more than 2e-06 M; with `CN1C(=O)[C@@H](NC(=O)c2cnn(Cc3ccccc3)c2)CSc2cc3c(ccn3Cc3ccccc3)cc21` [RIP1-083], more than 2e-06 M; with `CN1C(=O)[C@@H](NC(=O)c2cn(Cc3ccccc3)nn2)CSc2cc3c(ccn3Cc3ccccc3)cc21` [RIP1-084], more than 2e-06 M.
On to `CN1C(=O)[C@@H](NC(=O)c2cc(Cc3ccccc3)on2)CSc2cc3c(ccn3Cc3ccccc3)cc21` [RIP1-085], for which the IC50 was more than 2e-06 M.
As to `CN1C(=O)[C@@H](NC(=O)c2ncn(Cc3ccccc3)n2)CSc2cc3c(ccn3Cc3ccccc3)cc21` [RIP1-086], the IC50 is more than 2e-06 M.
For the compound `CN1C(=O)[C@@H](NC(=O)c2cnc(Cc3ccccc3)o2)CSc2cc3c(ccn3Cc3ccccc3)cc21` [RIP1-087], the IC50 is more than 2e-06 M.
For `CN1C(=O)[C@@H](NC(=O)c2cn(Cc3ccccc3)cn2)CSc2cc3c(ccn3Cc3ccccc3)cc21` [RIP1-088], the IC50 was more than 2e-06 M.
Consider `CN1C(=O)[C@@H](NC(=O)c2nnc(Cc3ccccc3)[nH]2)CSc2ccc3ncccc3c21` [RIP1-092], for which the IC50 stood at 1.05e-09 M.
Turning to `CN1C(=O)[C@@H](NC(=O)c2ncn(Cc3ccccc3)n2)CSc2ccc3ncccc3c21` [RIP1-093], the IC50 came out at 1.15e-09 M.
With `CN1C(=O)[C@@H](NC(=O)c2cn(Cc3ccccc3)cn2)CSc2ccc3ncccc3c21` [RIP1-094] the figure was 2e-09 M.
Consider `CN1C(=O)[C@@H](NC(=O)c2cn(Cc3ccccc3)nn2)CSc2ccc3ncccc3c21` [RIP1-095], for which the IC50 was determined as 9.85e-09 M.
As to `CN1C(=O)[C@@H](NC(=O)c2cc(Cc3ccccc3)on2)CSc2ccc3ncccc3c21` [RIP1-096], the IC50 is 1.38e-09 M.
For the compound `CN1C(=O)[C@@H](NC(=O)c2nnc(Cc3ccccc3)[nH]2)CSc2ccc3cnccc3c21` [RIP1-102], the IC50 is 9e-10 M.
Next, `CN1C(=O)[C@@H](NC(=O)c2ncn(Cc3ccccc3)n2)CSc2ccc3cnccc3c21` [RIP1-103]: 6.75e-09 M; `CN1C(=O)[C@@H](NC(=O)c2cn(Cc3ccccc3)cn2)CSc2ccc3cnccc3c21` [RIP1-104]: 7.4e-10 M; `CN1C(=O)[C@@H](NC(=O)c2cn(Cc3ccccc3)nn2)CSc2ccc3cnccc3c21` [RIP1-105]: 3.22e-09 M.
For the compound `CN1C(=O)[C@@H](NC(=O)c2cc(Cc3ccccc3)on2)CSc2ccc3cnccc3c21` [RIP1-106], the IC50 was found to be 7.47e-10 M.
`CN1C(=O)[C@@H](NC(=O)c2nnc(Cc3ccccc3)[nH]2)COc2cc3[nH]ccc3cc21` [RIP1-112]: the IC50 worked out at 1.22e-09 M.
Next, `CN1C(=O)[C@@H](NC(=O)c2ncn(Cc3ccccc3)n2)COc2cc3[nH]ccc3cc21` [RIP1-113]: 3.07e-10 M; `CN1C(=O)[C@@H](NC(=O)c2cn(Cc3ccccc3)cn2)COc2cc3[nH]ccc3cc21` [RIP1-114]: 8.46e-10 M.
Turning to `CN1C(=O)[C@@H](NC(=O)c2cn(Cc3ccccc3)nn2)COc2cc3[nH]ccc3cc21` [RIP1-115], the IC50 was 3.48e-09 M.
Take `CN1C(=O)[C@@H](NC(=O)c2cc(Cc3ccccc3)on2)COc2cc3[nH]ccc3cc21` [RIP1-116]: the IC50 was determined as 5.16e-09 M.
Next, `Cc1ccc(Cc2cc(C(=O)N[C@H]3COc4cc5occc5cc4N(C)C3=O)nn2C)cc1` [RIP1-124]: 2.09e-08 M; `CN1C(=O)[C@@H](NC(=O)c2ncn(Cc3ccccc3)n2)COc2cc3nccnc3cc21` [RIP1-128]: 4.83e-07 M; `CN1C(=O)[C@@H](NC(=O)c2cn(Cc3ccccc3)cn2)COc2cc3nccnc3cc21` [RIP1-129]: 7.94e-07 M.
Next, `CN1C(=O)[C@@H](NC(=O)c2cn(Cc3ccccc3)nn2)COc2cc3nccnc3cc21` [RIP1-130]: 5.43e-08 M.
Consider `Cc1ccc(Cc2cc(C(=O)N[C@H]3COc4cc5[nH]nnc5cc4N(C)C3=O)nn2C)cc1` [RIP1-141], for which the IC50 worked out at 2.19e-08 M.
Take `CN1C(=O)[C@@H](NC(=O)c2nnc(Cc3ccccc3)[nH]2)COc2cc3[nH]nnc3cc21` [RIP1-143]: the IC50 came to 2.06e-07 M.
Regarding `CN1C(=O)[C@@H](NC(=O)c2n[nH]c(Cc3ccccc3)n2)COc2ccc3cccnc3c21` [RIP1-148], the IC50 was determined as 1.07e-08 M.
Next, `O=C(N[C@H]1COc2ccc3cccnc3c2NC1=O)c1n[nH]c(Cc2ccccc2)n1` [RIP1-149]: more than 2e-06 M.
